Legend:
Prolyl endopeptidase = Prolyl endopeptidase (Sus scrofa, UniProt P23687)
Description: In vitro inhibition of prolyl oligopeptidase (POP) from pig brain

[1] = Partition coefficient (logP); format: physicochemical; settings: octanol/water
[2] = target: Prolyl endopeptidase (Sus scrofa) (UniProt P23687); assay: Compound was tested for in vitro inhibition of prolyl oligopeptidase (POP) from pig brain at 0.1 mM
Sequence of Prolyl endopeptidase (Sus scrofa) (P23687 whole entry, looked up): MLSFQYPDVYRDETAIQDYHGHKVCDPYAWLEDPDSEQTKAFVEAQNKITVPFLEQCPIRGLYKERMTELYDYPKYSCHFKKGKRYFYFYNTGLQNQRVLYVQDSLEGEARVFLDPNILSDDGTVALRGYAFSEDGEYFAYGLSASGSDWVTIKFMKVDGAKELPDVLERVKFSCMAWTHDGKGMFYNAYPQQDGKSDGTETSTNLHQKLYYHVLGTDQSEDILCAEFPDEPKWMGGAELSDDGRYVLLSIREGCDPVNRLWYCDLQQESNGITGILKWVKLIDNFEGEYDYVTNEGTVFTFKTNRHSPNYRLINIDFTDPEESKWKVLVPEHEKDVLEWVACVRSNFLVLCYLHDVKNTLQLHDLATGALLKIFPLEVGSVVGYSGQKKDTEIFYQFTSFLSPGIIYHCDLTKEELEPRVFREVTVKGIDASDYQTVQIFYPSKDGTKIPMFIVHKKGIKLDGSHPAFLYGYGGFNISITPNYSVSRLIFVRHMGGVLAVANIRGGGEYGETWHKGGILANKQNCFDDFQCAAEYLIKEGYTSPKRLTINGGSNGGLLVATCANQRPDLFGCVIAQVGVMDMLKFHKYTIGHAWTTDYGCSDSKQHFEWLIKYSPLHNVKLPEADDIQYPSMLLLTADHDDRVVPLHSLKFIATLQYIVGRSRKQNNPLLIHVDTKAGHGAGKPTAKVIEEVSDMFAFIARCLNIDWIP

Sequence of Prolyl endopeptidase (P23687 whole entry): as the sequence (P23687 whole entry, looked up) above

| SMILES | IC50 (Prolyl endopeptidase) [nM] | logP [1] | inhibition [2] [%] |
| --- | --- | --- | --- |
| CC(C)(CC(=O)N1CCC[C@H]1C(=O)C1CCCC1)CC(=O)N1CCC[C@H]1C(=O)N1CCC[C@H]1C(=O)CO | – | 0.7 | – |
| O=C(NCC(=O)N1CCCC1)c1cccc(C(=O)NCC(=O)N2CCCC2)c1 | 640 | – | – |
| C[C@H](NC(=O)c1cccc(C(=O)N[C@H](C)C(=O)N2CCCC2)c1)C(=O)N1CCCC1 | 87 | – | – |
| CC(=O)[C@H]1CCCN1C(=O)c1cccc(C(=O)N2CCC[C@H]2C(=O)N2CCC[C@@H]2C(=O)CO)c1 | 1.2 | – | – |
| CC(=O)[C@H]1CCCN1C(=O)c1cccc(C(=O)N2CCC[C@H]2C(=O)N2CCC[C@@H]2C#N)c1 | 4.2 | -0.6 | – |
| CSCC[C@H](NC(=O)c1cccc(C(=O)N[C@H](CCSC)C(=O)N2CCCC2)c1)C(=O)N1CCCC1 | 110 | – | – |
| N#C[C@H]1CCCN1C(=O)[C@@H]1CCCN1C(=O)c1cccc(C(=O)N2CCC[C@@H]2C(=O)c2ccccc2)c1 | 1.3 | 1.1 | – |
| O=C(N[C@@H](Cc1ccccc1)C(=O)N1CCCC1)c1cccc(C(=O)N[C@H](Cc2ccccc2)C(=O)N2CCCC2)c1 | 81 | – | – |
| O=C(CO)[C@H]1CCCN1C(=O)[C@@H]1CCCN1C(=O)c1cccc(C(=O)N2CCC[C@@H]2C(=O)C2CCCC2)c1 | 0.61 | 0.2 | – |
| COC(=O)[C@H]1CCCN1C(=O)c1cccc(C(=O)N2CCC[C@H]2C(=O)C2CCCC2)c1 | 640 | – | – |
| CC(C)C(=O)[C@H]1CCCN1C(=O)c1cccc(C(=O)N2CCC[C@H]2C(=O)N2CCC[C@@H]2C#N)c1 | 1.6 | 0.3 | – |
| CC(C)(CC(=O)N1CCC[C@H]1C(=O)C1CCCC1)CC(=O)N1CCC[C@H]1C(=O)N1CCC[C@H]1C#N | 0.57 | – | – |
| N#C[C@H]1CCCN1C(=O)[C@@H]1CCCN1C(=O)c1cccc(C(=O)N2CCC[C@@H]2C(=O)C2CCCC2)c1 | 1.1 | 0.8 | – |
| CC(=O)[C@H]1CCCN1C(=O)c1cccc(C(=O)N2CCC[C@H]2C(C)=O)c1 | – | – | 54 |

The next lines start with the values.

| IC50 (Prolyl endopeptidase) [nM] | logP [1] | inhibition [2] [%] | SMILES |
| --- | --- | --- | --- |
| 0.72 | – | – | N#C[C@H]1CCCN1C(=O)[C@@H]1CCCN1C(=O)c1cccc(C(=O)N2CCC[C@@H]2C(=O)C2CCCCC2)c1 |
| 170 | – | – | CC(C)(C)OC(=O)N1CCN(C(=O)[C@H]2CCCN2C(=O)c2cccc(C(=O)N3CCC[C@H]3C(=O)N3CCCC3)c2)CC1 |
| 65 | – | – | CC(=O)[C@H]1CCCN1C(=O)c1cccc(C(=O)N2CCC[C@H]2C(=O)N2CCCC2)c1 |
| 23 | – | – | O=C([C@H]1CCCN1C(=O)c1cccc(C(=O)N2CCC[C@H]2C(=O)N2CCCCCC2)c1)N1CCCC1 |
| 54 | – | – | COC(=O)[C@H]1CCCN1C(=O)c1cccc(C(=O)N2CCC[C@H]2C(=O)N2CCCC2)c1 |
| 39 | – | – | C[C@H](NC(=O)c1cccc(C(=O)N2CCC[C@H]2C(=O)N2CCCC2)c1)C(=O)N1CCCC1 |
| 78 | 2.7 | – | O=C(C1CCCC1)[C@H]1CCCN1C(=O)c1cccc(C(=O)N2CCC[C@H]2C(=O)C2CCCC2)c1 |
| 18 | – | – | O=C(c1ccccc1)[C@H]1CCCN1C(=O)c1cccc(C(=O)N2CCC[C@H]2C(=O)N2CCCC2)c1 |
| – | -0.2 | – | O=C([C@@H]1CCCN1C(=O)c1cccc(C(=O)N2CCC[C@H]2C(=O)N2CCCC2)c1)N1CCCC1 |
| 33 | – | – | O=C([C@H]1CCCN1C(=O)c1cccc(C(=O)N2CCC[C@H]2C(=O)N2CCNCC2)c1)N1CCCC1 |
| 0.39 | – | – | O=C(CO)[C@@H]1CCCN1C(=O)[C@@H]1CCCN1C(=O)c1cccc(C(=O)N2CCC[C@H]2C(=O)N2CCCC2)c1 |
| 14 | – | – | O=C(C1CCCC1)[C@H]1CCCN1C(=O)c1cccc(C(=O)N2CCC[C@H]2C(=O)N2CCCC2)c1 |
| 31 | – | – | O=C(NCc1ccccc1)[C@@H]1CCCN1C(=O)c1cccc(C(=O)N2CCC[C@@H]2C(=O)N2CCCC2)c1 |

From ChEMBL document CHEMBL1145128, “New prolyl oligopeptidase inhibitors developed from dicarboxylic acid bis(l-prolyl-pyrrolidine) amides” (J Med Chem, 2003)
